From patent US9403823B2, “Protein kinase inhibitors” (ORIBASE PHARMA, priority 2012, dated 2016)
Where two headings read alike, the source gives them in different places.

Key:
[1] = system: HuH7 cell line; assay: In vitro cell proliferation assay (MTT), HuH7; format: cell-based; details: Homo sapiens, read-out: EC50, anti-proliferative activity
Procedure: (§1) 2) In Vitro Cell Proliferation Assays (Table 22 to Table 35)
(§2) Cancer cell lines (5×10^3 cells per well) or HUVEC (1×10^4 cells per well) or HRMEC (1×10^4 cells per well) were distributed in 96-well plates and incubating in duplicate with escalating concentrations (10 nM to 3 μM) of compounds for 72 hr. Cell proliferation was measured using MTT (3[4,5-dimethylthiazol-2-yl]-2,5-diphenyltetrazolium bromide).

[2] = system: HuCCT1 cell line; assay: In vitro cell proliferation assay (MTT), HuCCT1; format: cell-based; details: Homo sapiens, read-out: EC50, anti-proliferative activity
Procedure: as §1, §2

[3] = system: A549 cell line; assay: In vitro cell proliferation assay (MTT), A549; format: cell-based; details: Homo sapiens, read-out: EC50, anti-proliferative activity
Procedure: as §1, §2

[4] = system: HUVEC; assay: In vitro cell proliferation assay (MTT), HUVEC; format: cell-based; details: Homo sapiens, read-out: EC50, anti-proliferative activity
Summary of the method: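 Anti-proliferative effects on human umbilical vein endothelial cells were assessed by an MTT (3[4,5-dimethylthiazol-2-yl]-2,5-diphenyltetrazolium bromide) readout. Cells (1×10^4 cells per well) in 96-well plates were incubated in duplicate for 72 hr with escalating test compound concentrations spanning 10 nM to 3 μM.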

[5] = molecular target: T1, EGFR (ErbB1) (Homo sapiens, UniProt P00533); assay: In vitro kinase assay (Z'-LYTE), EGFR (ErbB1); format: biochemical; details: read-out: % of inhibition of the kinase compared to the control
T1 construct: purchased Invitrogen
T1 sequence (P00533 25-1210): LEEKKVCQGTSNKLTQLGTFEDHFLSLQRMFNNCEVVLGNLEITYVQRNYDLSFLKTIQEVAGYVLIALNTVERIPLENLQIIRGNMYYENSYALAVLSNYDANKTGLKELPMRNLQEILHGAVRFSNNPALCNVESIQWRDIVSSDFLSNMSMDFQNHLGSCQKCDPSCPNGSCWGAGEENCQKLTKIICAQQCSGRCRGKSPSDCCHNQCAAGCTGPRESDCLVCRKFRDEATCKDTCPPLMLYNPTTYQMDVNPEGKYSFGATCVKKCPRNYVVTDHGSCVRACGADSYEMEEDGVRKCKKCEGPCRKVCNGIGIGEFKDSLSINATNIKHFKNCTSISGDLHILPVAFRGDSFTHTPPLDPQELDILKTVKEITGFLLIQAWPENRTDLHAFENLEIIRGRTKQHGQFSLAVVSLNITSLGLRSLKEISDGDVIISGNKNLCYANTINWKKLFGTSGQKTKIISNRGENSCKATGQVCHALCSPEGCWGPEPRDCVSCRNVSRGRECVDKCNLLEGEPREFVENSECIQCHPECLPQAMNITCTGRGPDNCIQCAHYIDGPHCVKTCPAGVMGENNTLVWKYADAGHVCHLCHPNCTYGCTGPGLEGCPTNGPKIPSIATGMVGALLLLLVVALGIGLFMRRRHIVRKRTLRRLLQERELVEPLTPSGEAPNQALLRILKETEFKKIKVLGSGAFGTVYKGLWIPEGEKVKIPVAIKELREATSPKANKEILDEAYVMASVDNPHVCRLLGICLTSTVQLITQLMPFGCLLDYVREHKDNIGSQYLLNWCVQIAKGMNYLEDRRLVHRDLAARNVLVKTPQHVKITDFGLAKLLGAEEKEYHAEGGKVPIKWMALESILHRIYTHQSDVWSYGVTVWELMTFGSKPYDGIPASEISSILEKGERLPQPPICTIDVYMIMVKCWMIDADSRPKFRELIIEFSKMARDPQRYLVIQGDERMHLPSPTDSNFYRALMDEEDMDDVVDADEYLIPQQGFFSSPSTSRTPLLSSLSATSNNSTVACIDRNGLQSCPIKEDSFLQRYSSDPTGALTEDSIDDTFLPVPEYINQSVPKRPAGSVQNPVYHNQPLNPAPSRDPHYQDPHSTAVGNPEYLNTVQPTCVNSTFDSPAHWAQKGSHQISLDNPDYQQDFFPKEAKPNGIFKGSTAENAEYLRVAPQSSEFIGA
Summary of the method: (§3)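 Compounds at a single dose (100 nM; 10 μM for both ABL forms) were run in a fluorescence coupled-enzyme kinase format relying on differential protease sensitivity of phospho versus non-phospho peptide. Reaction progress was measured ratiometrically from the FRET pair.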

[6] = system: HT29 cell line; assay: In vitro cell proliferation assay (MTT), HT29; format: cell-based; details: Homo sapiens, read-out: EC50, anti-proliferative activity
Procedure: as §1, §2

[7] = molecular target: T2, PDGFRA (PDGFR alpha) (Homo sapiens, UniProt P16234); assay: In vitro kinase assay (Z'-LYTE), PDGFRA; format: biochemical; details: read-out: % of inhibition of the kinase compared to the control
T2 construct: purchased Invitrogen
Summary of the method: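 Single-point screening used 100 nM compound for VEGFR1 and PDGFRA, 10 μM for wild-type and T315I ABL. Activity was scored via Z'-LYTE emission ratio.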

[8] = molecular target: T3, SRC (Homo sapiens, UniProt P12931); assay: In vitro kinase assay (Z'-LYTE), SRC; format: biochemical; details: read-out: % of inhibition of the kinase compared to the control
T3 construct: purchased Invitrogen
T3 sequence (P12931 whole entry): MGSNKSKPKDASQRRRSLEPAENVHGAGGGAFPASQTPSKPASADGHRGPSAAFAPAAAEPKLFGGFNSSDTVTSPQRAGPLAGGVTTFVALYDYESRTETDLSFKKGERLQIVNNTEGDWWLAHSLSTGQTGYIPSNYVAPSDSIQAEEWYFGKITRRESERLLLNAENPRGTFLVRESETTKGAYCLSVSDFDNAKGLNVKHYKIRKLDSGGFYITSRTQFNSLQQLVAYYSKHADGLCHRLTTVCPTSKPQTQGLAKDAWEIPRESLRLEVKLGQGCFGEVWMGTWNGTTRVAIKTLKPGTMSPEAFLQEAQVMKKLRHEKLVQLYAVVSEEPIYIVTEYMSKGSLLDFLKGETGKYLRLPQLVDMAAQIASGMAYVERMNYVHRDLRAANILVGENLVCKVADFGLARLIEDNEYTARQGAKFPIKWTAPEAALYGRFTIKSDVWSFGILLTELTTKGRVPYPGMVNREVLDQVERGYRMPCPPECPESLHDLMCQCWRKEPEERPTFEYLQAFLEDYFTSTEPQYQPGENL
Summary of the method: as §3

[9] = system: H1975 cell line; assay: In vitro cell proliferation assay (MTT), H1975; format: cell-based; details: Homo sapiens, read-out: EC50, anti-proliferative activity
Procedure: as §1, §2

[10] = molecular target: T4, FGFR2 (Homo sapiens, UniProt P21802); assay: In vitro kinase assay (Z'-LYTE), FGFR2; format: biochemical; details: read-out: % of inhibition of the kinase compared to the control
T4 construct: purchased Invitrogen
T4 sequence (P21802 22-821): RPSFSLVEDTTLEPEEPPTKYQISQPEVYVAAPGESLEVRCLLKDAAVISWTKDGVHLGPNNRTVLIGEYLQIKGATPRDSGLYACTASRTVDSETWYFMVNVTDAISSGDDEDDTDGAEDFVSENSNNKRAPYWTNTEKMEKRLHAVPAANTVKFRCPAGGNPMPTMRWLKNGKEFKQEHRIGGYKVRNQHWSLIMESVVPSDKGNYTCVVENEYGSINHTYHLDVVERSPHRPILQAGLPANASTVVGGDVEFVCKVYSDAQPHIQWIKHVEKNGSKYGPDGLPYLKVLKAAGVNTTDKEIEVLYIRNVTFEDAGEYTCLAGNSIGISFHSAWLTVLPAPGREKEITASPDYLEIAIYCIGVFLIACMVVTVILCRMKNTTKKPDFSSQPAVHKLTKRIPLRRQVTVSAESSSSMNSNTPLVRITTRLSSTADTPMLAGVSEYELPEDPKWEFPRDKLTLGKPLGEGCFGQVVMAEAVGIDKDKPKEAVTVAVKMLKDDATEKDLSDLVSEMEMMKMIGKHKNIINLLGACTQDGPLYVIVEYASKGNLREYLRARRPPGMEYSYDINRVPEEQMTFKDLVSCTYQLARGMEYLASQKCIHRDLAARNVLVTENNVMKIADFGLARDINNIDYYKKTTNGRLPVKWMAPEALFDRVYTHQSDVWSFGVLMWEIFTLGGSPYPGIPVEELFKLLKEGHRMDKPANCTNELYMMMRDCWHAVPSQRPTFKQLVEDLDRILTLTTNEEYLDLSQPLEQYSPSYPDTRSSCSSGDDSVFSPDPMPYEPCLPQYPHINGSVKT
Summary of the method: as §3

[11] = molecular target: T5, BRAF (Homo sapiens, UniProt P15056); assay: In vitro kinase assay (Z'-LYTE), BRAF; format: biochemical; details: read-out: % of inhibition of the kinase compared to the control
T5 construct: purchased Invitrogen
Summary of the method: as §3

[12] = system: HuH6 Clone 5 cell line; assay: In vitro cell proliferation assay (MTT), HuH6 Clone 5; format: cell-based; details: read-out: EC50, anti-proliferative activity
Procedure: as §1, §2

[13] = molecular target: T6, KDR (VEGFR2) (Homo sapiens, UniProt P35968); assay: In vitro kinase assay (Z'-LYTE), KDR (VEGFR2); format: biochemical; details: read-out: % of inhibition of the kinase compared to the control
T6 construct: purchased Invitrogen
T6 sequence (P35968 20-1356): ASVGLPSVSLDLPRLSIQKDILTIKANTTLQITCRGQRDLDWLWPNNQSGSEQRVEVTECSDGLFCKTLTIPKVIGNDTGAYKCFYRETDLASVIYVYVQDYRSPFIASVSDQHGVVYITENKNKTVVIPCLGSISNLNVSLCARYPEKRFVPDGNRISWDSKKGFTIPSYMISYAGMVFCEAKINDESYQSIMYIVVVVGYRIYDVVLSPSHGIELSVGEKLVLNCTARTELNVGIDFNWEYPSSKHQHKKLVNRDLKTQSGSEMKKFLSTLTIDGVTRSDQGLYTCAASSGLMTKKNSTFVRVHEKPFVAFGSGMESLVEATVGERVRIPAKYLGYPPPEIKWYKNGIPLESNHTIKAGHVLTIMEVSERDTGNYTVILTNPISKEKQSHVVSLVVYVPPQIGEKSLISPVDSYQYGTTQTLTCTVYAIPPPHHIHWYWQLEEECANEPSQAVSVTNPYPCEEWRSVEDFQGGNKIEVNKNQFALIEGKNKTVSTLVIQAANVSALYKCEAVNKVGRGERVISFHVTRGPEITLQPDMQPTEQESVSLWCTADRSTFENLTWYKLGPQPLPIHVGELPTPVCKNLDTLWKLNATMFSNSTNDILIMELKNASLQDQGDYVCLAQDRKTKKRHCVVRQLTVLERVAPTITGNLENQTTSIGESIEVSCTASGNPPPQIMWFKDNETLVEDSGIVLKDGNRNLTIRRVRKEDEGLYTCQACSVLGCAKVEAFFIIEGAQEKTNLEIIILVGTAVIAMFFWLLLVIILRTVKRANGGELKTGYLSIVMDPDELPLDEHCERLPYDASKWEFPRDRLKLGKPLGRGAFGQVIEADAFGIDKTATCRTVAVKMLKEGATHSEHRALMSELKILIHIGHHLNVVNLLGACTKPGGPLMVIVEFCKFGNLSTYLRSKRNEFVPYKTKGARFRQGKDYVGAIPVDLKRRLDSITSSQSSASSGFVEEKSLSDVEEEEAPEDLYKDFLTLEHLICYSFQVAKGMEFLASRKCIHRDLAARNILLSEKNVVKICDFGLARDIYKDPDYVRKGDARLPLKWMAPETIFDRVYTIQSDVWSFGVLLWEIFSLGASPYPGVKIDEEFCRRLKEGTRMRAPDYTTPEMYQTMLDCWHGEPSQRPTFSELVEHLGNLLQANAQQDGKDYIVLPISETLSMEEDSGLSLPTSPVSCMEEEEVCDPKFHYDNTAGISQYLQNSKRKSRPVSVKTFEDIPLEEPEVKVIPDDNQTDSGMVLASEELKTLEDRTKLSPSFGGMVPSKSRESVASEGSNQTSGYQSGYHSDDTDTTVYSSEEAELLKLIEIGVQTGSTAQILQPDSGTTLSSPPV
Summary of the method: as §3

[14] = molecular target: T7, EGFR (ErbB1) T790M L858R (Homo sapiens, UniProt P00533, L858R/T790M); assay: In vitro kinase assay (Z'-LYTE), EGFR (ErbB1) T790M L858R; format: biochemical; details: read-out: % of inhibition of the kinase compared to the control
T7 construct: purchased Invitrogen
T7 sequence (P00533 25-1210 T790M/L858R): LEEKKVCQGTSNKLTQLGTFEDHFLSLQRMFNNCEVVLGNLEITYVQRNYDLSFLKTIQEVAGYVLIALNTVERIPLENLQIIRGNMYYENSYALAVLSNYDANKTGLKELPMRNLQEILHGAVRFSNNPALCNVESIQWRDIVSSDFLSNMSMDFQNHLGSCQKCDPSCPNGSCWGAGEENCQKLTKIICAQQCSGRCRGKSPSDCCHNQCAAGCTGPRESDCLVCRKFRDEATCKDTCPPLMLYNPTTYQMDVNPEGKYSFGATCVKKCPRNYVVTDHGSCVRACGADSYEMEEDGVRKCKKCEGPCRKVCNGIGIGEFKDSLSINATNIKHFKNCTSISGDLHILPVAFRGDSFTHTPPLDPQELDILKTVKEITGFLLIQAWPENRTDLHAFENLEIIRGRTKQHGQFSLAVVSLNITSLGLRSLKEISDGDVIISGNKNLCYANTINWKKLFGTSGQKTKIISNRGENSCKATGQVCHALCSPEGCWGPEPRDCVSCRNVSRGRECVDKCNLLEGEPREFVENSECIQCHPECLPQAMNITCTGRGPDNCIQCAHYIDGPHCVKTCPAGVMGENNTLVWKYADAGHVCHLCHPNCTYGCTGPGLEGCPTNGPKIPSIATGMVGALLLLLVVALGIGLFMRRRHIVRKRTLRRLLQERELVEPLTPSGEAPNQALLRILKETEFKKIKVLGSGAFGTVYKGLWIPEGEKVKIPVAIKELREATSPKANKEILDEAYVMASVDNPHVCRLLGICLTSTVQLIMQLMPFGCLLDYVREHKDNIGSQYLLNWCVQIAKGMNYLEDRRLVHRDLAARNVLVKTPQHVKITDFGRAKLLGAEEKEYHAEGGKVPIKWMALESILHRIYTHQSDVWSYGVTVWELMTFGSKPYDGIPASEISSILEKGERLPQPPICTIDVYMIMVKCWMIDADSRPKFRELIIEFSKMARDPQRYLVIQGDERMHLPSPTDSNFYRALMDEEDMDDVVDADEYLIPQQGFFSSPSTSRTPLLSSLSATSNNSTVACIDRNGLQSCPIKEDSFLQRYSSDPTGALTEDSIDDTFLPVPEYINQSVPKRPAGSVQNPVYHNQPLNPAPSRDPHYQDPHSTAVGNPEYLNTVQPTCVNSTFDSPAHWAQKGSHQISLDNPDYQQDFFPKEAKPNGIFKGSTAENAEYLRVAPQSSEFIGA
Procedure: 1) In Vitro Kinase Assays (Table 10 to Table 21)
The inhibitory activity of the compounds on several kinases including BRAF, EGFR (ErbB1), EGFR (ErbB1) T790M L858R, FGFR2, KDR (VEGFR2), PDGFRA (PDGFR alpha), SRC and other was evaluated by Invitrogen using the Z′-LYTE® technology. Briefly, the Z′-LYTE® biochemical assay employs a fluorescence-based, coupled-enzyme format and is based on the differential sensitivity of phosphorylated and non-phosphorylated peptides to proteolytic cleavage. The peptide substrate is labeled with two fluorophores—one at each end—that make up a FRET pair. A ratiometric method, which calculates the ratio (the Emission Ratio) of donor emission to acceptor emission after excitation of the donor fluorophore at 400 nm, is used to quantitate reaction progress.
The compounds are screened in 1% DMSO (final) in the well. For 10 point titrations, 3-fold serial dilutions are conducted from the starting concentration. All Peptide/Kinase Mixtures are diluted to a 2× working concentration in the appropriate Kinase Buffer. All ATP Solutions are diluted to a 4× working concentration in Kinase Buffer (50 mM HEPES pH 7.5, 0.01% BRIJ-35, 10 mM MgCl2, 1 mM EGTA). ATP Km apparent is previously determined using a Z′-LYTE® assay.
Each compound was incubated at a concentration of 100 nM (excepted to test the activity against ABL and ABL T315I for which the compounds were incubated at a concentration of 10 μM) and the tables 10 to 21 summarize the results obtained showing the inhibitory power of a compound.

[15] = system: HepG2 cell line; assay: In vitro cell proliferation assay (MTT), HepG2; format: cell-based; details: Homo sapiens, read-out: EC50, anti-proliferative activity
Summary of the method: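 Duplicate wells of each line were exposed for 72 hr to 10 nM–3 μM compound. HRMEC were plated at 1×10^4 cells per well, cancer cells at 5×10^3.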

[16] = system: MDA-MB-231 cell line; assay: In vitro cell proliferation assay (MTT), MDA-MB-231; format: cell-based; details: Homo sapiens, MDA-MB-231, 72 h; read-out: EC50, anti-proliferative activity
Procedure: as §1, §2

[17] = system: HeLa cell line; assay: In vitro cell proliferation assay (MTT), HeLa; format: cell-based; details: Homo sapiens, 72 hr, MTT, read-out: EC50, anti-proliferative activity
Procedure: as §1, §2

[18] = system: HRMEC cells; assay: In vitro cell proliferation assay (MTT), HRMEC; format: cell-based; details: 72 h, read-out: EC50, anti-proliferative activity
Procedure: as §1, §2

[19] = HUH-6-clone5, HuH6 Clone 5, 72 hr, MTT

SMILES | EC50 ([1]; Huh-7, HuH7, 72 hr, MTT) [nM] | EC50 ([2]; HuCCT-1, HuCCT1, 72 hr, MTT) [nM] | EC50 ([3]; A549, 72 hr, MTT) [nM] | inhibition at 0.1 µM [5] [%] | inhibition at 0.1 µM [7] [%] | inhibition at 0.1 µM [8] [%] | inhibition at 0.1 µM [10] [%] | inhibition at 0.1 µM [11] [%] | EC50 [12, 19] [nM] | inhibition at 0.1 µM [13] [%] | inhibition at 0.1 µM [14] [%] | EC50 ([15]; HepG2, 72 hr, MTT) [nM] | EC50 ([1]; Huh-7, 72 h) [nM] | EC50 ([3]; A549, 72 h) [nM] | EC50 ([4]; 72 h) [nM] | EC50 ([9]; NCI-H1975, 72 h) [nM] | EC50 [18] [nM] | EC50 ([12]; HUH-6-clone5, 72 h) [nM] | EC50 ([15]; HepG2, 72 h) [nM] | further results
CC(=O)c1cc2cc(NC(=O)c3cc(NC(=O)c4ccc(CN5CCC(N(C)C)C5)c(C(F)(F)F)c4)ccc3C)cnc2[nH]1 (stereo not shown) [OR0782, N-(2-Acetyl-1H-pyrrolo[2,3-b]pyridin-5-yl)-2-methyl-5-[4-(3-dimethylamino-pyrrolidin-1-ylmethyl)-3-trifluoromethyl-benzoylamino]-benzamide] | ≥ 1000 | ≥ 1000 | ≥ 1000 | ≥ 50 | ≥ 50 | ≥ 50 | ≥ 50 | < 50 | ≥ 1000 | ≥ 50 | < 50 | ≥ 1000 | – | – | – | – | – | – | – | EC50 ([4]; 72 hr, MTT): ≥ 1000 nM; EC50 ([6]; HT-29, HT29, 72 hr, MTT): ≥ 1000 nM; EC50 ([9]; NCI-H1975, H1975, 72 hr, MTT): ≥ 1000 nM
CNC(=O)c1cc2cc(NCc3cc(NC(=O)c4ccc(CN5CCN(C)CC5)c(C(F)(F)F)c4)ccc3C)cnc2[nH]1 [OR0751, 5-{2-Methyl-5-[4-(4-methyl-piperazin-1-ylmethyl)-3-trifluoromethyl-benzoylamino]-benzylamino}-1H-pyrrolo[2,3-b]pyridine-2-carboxylic acid methylamide] | – | – | – | ≥ 50 | ≥ 50 | ≥ 50 | ≥ 50 | ≥ 50 | – | ≥ 50 | ≥ 50 | – | ≤ 100 | 100 to 1000 | ≤ 100 | 100 to 1000 | ≤ 100 | 100 to 1000 | ≤ 100 | EC50 ([2]; HuCCT-1, 72 h): 100 to 1000 nM; EC50 [16]: ≤ 100 nM; EC50 ([6]; HT-29, 72 h): ≤ 100 nM; EC50 [17]: ≥ 1000 nM
CC(=O)c1cc2cc(NC(=O)c3cc(NC(=O)c4ccc(CN5CCN(C)CC5)c(C(F)(F)F)c4)ccc3C)cnc2[nH]1 [OR0781, N-(2-Acetyl-1H-pyrrolo[2,3-b]pyridin-5-yl)-2-methyl-5-[4-(4-methyl-piperazin-1-ylmethyl)-3-trifluoromethyl-benzoylamino]-benzamide] | – | ≥ 1000 | ≥ 1000 | ≥ 50 | ≥ 50 | ≥ 50 | ≥ 50 | ≥ 50 | ≥ 1000 | ≥ 50 | ≥ 50 | ≥ 1000 | 100 to 1000 | – | 100 to 1000 | 100 to 1000 | – | – | – | EC50 ([6]; HT-29, HT29, 72 hr, MTT): ≥ 1000 nM
CNC(=O)c1cc2cc(NCc3cc(NC(=O)c4ccc(CN5CC[C@H](N(C)C)C5)c(C(F)(F)F)c4)ccc3C)cnc2[nH]1 [OR0813, 5-{5-[4-((S)-3-Dimethylamino-pyrrolidin-1-ylmethyl)-3-trifluoromethyl-benzoylamino]-2-methyl-benzylamino}-1H-pyrrolo-[2,3-b]pyridine-2-carboxylic acid methylamide] | – | – | – | ≥ 50 | – | – | ≥ 50 | ≥ 50 | – | ≥ 50 | – | – | – | ≤ 100 | ≤ 100 | – | 100 to 1000 | – | ≤ 100 | EC50 [16]: 100 to 1000 nM; EC50 [17]: ≥ 1000 nM
CNC(=O)c1cc(Oc2ccc(NC(=O)Nc3ccc(Cl)c(C(F)(F)F)c3)cc2)ccn1 [Sorafenib, reference compound] | 1000 to 3000 | 1000 to 3000 | – | – | – | – | – | – | 1000 to 3000 | – | – | 1000 to 3000 | – | – | – | – | – | – | – | –
CNC(=O)c1cc2cc(NCc3cc(NC(=O)c4ccc(CN5CCC(N(C)C)C5)c(C(F)(F)F)c4)ccc3C)cnc2[nH]1 (stereo not shown) [OR0752, 5-{5-[4-(3-Dimethylamino-pyrrolidin-1-ylmethyl)-3-trifluoromethyl-benzoylamino]-2-methyl-benzylamino}-1H-pyrrolo[2,3-b]pyridine-2-carboxylic acid methylamide] | – | – | – | ≥ 50 | ≥ 50 | ≥ 50 | ≥ 50 | ≥ 50 | – | ≥ 50 | ≥ 50 | – | 100 to 1000 | 100 to 1000 | ≤ 100 | 100 to 1000 | ≤ 100 | 100 to 1000 | 100 to 1000 | EC50 ([2]; HuCCT-1, 72 h): 100 to 1000 nM; EC50 ([6]; HT-29, 72 h): 100 to 1000 nM
CNC(=O)c1cc2cc(NCc3cc(NC(=O)c4ccc(CN5CCN(C)CC5)cc4)ccc3C)cnc2[nH]1 [OR0753, 5-{2-Methyl-5-[4-(4-methyl-piperazin-1-ylmethyl)-benzoylamino]-benzylamino}-1H-pyrrolo[2,3-b]pyridine-2-carboxylic acid methylamide] | ≥ 1000 | ≥ 1000 | ≥ 1000 | ≥ 50 | ≥ 50 | ≥ 50 | < 50 | ≥ 50 | – | ≥ 50 | ≥ 50 | ≥ 1000 | – | – | – | – | – | 100 to 1000 | – | EC50 ([4]; 72 hr, MTT): ≥ 1000 nM
